In patent publication US20220119375A1, “3-ARYLOXY-3-ARYL-PROPYLAMINE COMPOUND AND USES THEREOF” (Zhangzhou Pien Tze Huang Pharmaceutical Co., Ltd., priority 2018, published 2022):
Like-named read-outs stand apart in the source and are kept apart here.

Key:
[1] = test system: C57 mice, hot plate pain model; experiment: mice hot plate pain model; assay type: in vivo, mouse; settings: 10 mg/kg intraperitoneal, hot plate 55±0.1° C., within 60 minutes
Experimental: SPF-grade C57 male mice were placed at hot plate with constant 55±0.1° C. […] If the pain reaction of mice was observed, the mice were taken out immediately to prevent mice from scalding. […] The test compounds were freshly prepared on the day of administration. 0.9% NaCl physiological saline solution was prepared as solvent for later use. Appropriate amount of test compounds were added into required volume of physiological saline and fully suspended, and the concentration of the drug compound in preparation was 1 mg/ml. The standard volume of administration to mice was 10 ml/kg (or 0.1 ml/10 g). […] The administration volume was 10 ml/kg. […] Hot plate observation index: the reaction time of mice on the hot plate at 55±0.1° C. (Time latency). Measurement and recording were conducted at 3 h before administration and 15 min, 30 min, and 60 min after administration. Maximum possible effect (MPE) % was used to evaluate analgesic effect of each compound, i.e., MPE %=[(Post drug latency-baseline latency)/(30-baseline latency)]×100. MPE % at different time points was recorded. The higher the value of MPE % was, the stronger the analgesic effect of the compound was.

[2] = target: T1, TRPA1 (Mus musculus, UniProt Q8BLA8); experiment: IonWorks Barracuda (IWB) automated patch clamp detection of TRPA1 inhibitory activity; assay type: cell-based, mouse (mTRPA1); settings: automated patch clamp (IWB)
T1 construct: expressed in transfected cells; host or cells: HEK293
T1 sequence (Q8BLA8 whole entry): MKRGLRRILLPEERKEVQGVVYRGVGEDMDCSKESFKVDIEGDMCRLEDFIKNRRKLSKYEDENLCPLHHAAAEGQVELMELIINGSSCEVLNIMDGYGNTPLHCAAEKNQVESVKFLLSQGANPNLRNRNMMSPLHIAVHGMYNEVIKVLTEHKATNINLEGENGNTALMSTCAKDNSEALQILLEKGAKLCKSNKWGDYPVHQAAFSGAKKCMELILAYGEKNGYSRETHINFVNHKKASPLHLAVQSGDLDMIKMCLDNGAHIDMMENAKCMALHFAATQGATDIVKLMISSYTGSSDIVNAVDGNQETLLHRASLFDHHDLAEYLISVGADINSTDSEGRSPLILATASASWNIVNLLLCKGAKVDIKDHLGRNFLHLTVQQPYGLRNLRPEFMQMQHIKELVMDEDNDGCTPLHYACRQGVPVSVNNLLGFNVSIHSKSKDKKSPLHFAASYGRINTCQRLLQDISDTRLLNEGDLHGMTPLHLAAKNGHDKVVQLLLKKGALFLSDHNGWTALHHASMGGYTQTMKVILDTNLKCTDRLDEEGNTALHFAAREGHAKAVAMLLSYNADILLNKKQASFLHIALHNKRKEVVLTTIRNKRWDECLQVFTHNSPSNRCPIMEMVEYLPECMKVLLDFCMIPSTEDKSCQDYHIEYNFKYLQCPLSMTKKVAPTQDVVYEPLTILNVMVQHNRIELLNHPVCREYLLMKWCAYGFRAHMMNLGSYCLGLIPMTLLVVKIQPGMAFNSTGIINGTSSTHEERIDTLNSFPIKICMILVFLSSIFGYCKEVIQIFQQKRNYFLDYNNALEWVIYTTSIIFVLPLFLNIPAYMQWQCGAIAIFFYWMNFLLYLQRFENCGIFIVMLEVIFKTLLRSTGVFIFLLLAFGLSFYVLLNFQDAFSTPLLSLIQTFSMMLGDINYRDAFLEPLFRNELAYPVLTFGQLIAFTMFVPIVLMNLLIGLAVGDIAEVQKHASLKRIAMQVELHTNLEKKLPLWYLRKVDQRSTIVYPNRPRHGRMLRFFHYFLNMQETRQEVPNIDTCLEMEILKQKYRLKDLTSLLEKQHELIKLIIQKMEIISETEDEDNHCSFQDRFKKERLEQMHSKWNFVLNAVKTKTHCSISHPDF
Experimental: The inhibitory activity of some compounds in the Examples of present invention on transient receptor potential channel protein TRPA1 was tested in this example. The compound of formula A (WO2010075353) was used as a positive control compound: […]
IonWorks Barracuda (IWB) automated patch clamp detection was used as test method: HEK293 cells stably expressing TRPA1 were placed in DMEM medium containing 15 μg/mL Blasticidin S HCl, 200 μg/mL Hygromycin B and 10% FBS in the T175 culture flask, and cultured in 37° C., 5% CO2 incubator. When the cell density reached about 80%, the culture medium was removed, rinsed with phosphate buffered saline (PBS) without calcium and magnesium. 3 mL of Trypsin was added to digest for 2 min, 7 mL of culture medium was added to terminate the digestion. The cells were collected to 15 mL centrifuge tube and centrifuged at 800 rpm for 3 min. After the supernatant was removed, the cells were added to appropriate volume of extracellular fluid for re-suspending, and the cell density was controlled at 2-3×10^6/mL for IWB experiment. Extracellular fluid formulation (in mM): 140 NaCl, 5 KCl, 1 MgCl2, 10 HEPES, 0.5 EGTA, 10 Glucose (pH 7.4); intracellular fluid formulation (in mM): 140 CsCl, 10 HEPES, 5 EGTA, 0.1 CaCl2, 1 MgCl2 (pH 7.2). 28 mg/mL of amphotericin B was freshly prepared with DMSO on the day of experiment, and then final concentration of 0.1 mg/mL was prepared with intracellular fluid.
Population patch clamp (PPC) plate was used in IWB experiment. The entire detection process was automatically carried out by the instrument. Extracellular fluid was added into 384 wells of PPC plate, and 6 µL of the intracellular fluid was added into plenum (under the PPC plate), 6 µL of cell fluid was added for sealing test, and finally the intracellular fluid in plenum was replaced with amphotericin B-containing intracellular fluid to establish a whole-cell recording mode after perforating sealed cells. The sampling frequency for recording TPRA1 current was 10 kHz, the cells were clamped at 0 mV, the voltage stimulation command (channel protocol) was a ramp voltage from −100 mV to +100 mV for 300 ms. This voltage stimulation was applied every 10 s, mTRPA1 current was induced by 300 µM AITC.
Data recording and current amplitude measurement export were carried out by IWB software (version 2.5.3, Molecular Devices Corporation, Union City, Calif.). No statistics was recorded for holes with sealing impedance lower than 20 MΩ. The original current data was corrected by software for leakage reduction. TRPA1 current amplitude was measured at +100 mV. […] If IC50 value of HC030031 exceeded 3 times the average IC50 value previously obtained on each plate, it would be re-tested. The dose-effect curve of compounds and IC50 were fitted and calculated by GraphPad Prism 5.02 (GraphPad Software, San Diego, Calif.).

[3] = test system: SH—SY5Y cells; experiment: Cytotoxicity test (CCK-8), neurotoxicity; assay type: cell-based; settings: Homo sapiens, 72 h
Experimental: (§1) HepG-2 and SH—SY5Y cells were placed in 10 cm dish and cultured at 37° C., 5% CO2 in a cell incubator. Trypsin was used to digest and resuspend cells and cells were counted. The cells were transferred to 96-well plate with 8000 cells in a well (100 μl/well). A serial of gradient concentration dilutions of compound with 2-fold dilution were prepared, and the system was 100 μL/well. The supernatant of cell culture system in the 96-well plate was removed on the first day, and fresh-prepared drug concentration system was add into culture plate wells (duplicate wells were set). The cells were cultured at 37° C., 5% CO2 in a cell incubator for 72 h. After the cell culture was completed, the supernatant of cell culture system was removed from 96-well plate, 100 μl of detection solution containing 10% CCK-8 medium was added into each well, and the cells were cultured at 37° C., 5% CO2 in a cell incubator for 1 h. Microplate reader was used to measure the absorbance at 450 nm. Data was processed to calculate cytotoxicity, and IC50 was calculated by GraphPad Prism. […]
(§2) A (Dosing): the absorbance of wells containing cells, CCK-8 solution and drug solution.
(§3) A (control): the absorbance of wells containing medium and CCK-8 solution and without cells.
(§4) A (0 Dosing): the absorbance of wells containing cells and CCK-8 solution but without drug solution.

[4] = test system: HepG2 cell; experiment: Cytotoxicity test (CCK-8), hepatotoxicity; assay type: cell-based; settings: Homo sapiens, 72 h
Experimental: as §1, §2, §3, §4

Row | Compound | analgesic effect (MPE %) on hot plate [1] | IC50 ([2]; HEK293 cells stably expressing TRPA1, AITC-induced current at +100 mV, read-out: IC50 (μM) on TRPA1 in the patch clamp detection test) [µM] | IC50 [3] [µM] | IC50 [4] [µM] | IC50 ([2]; read-out: IC50 on TRPA1) [µM]
1 | CNCC[C@H](Oc1cccc2ccoc12)c1cccs1 [Compound IC-1, (S)-3-(benzofuran-7-yloxy)-N-methyl-3-(thiophen-2-yl)propyl-1-amine] | stronger than those of gabapentin and duloxetine | 1 to 5 | – | – | –
2 | CNCC[C@H](Oc1cccc2ccccc12)c1cccs1 [Duloxetine (S configuration), Duloxetine] | – | – | 28 | 33 | 24.7
